Experimental data from the supplement of paper PMC10307832.

Key:
Assay in all cases: relative viability (nuclei count vs DMSO), 5 days (fraction); higher = more cells survive
Imatinib + Palbociclib = compound: Cc1ccc(NC(=O)c2ccc(CN3CCN(C)CC3)cc2)cc1Nc1nccc(-c2cccnc2)n1 [Imatinib] + CC(=O)c1c(C)c2cnc(Nc3ccc(N4CCNCC4)cn3)nc2n(C2CCCC2)c1=O [Palbociclib] (partner 0.5 µM)
Procedure, shortened: (§1)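 Cells from lung cancer lines were seeded into 1536-well plates and, one day later, dosed by pin tool. Treatments were either a single drug or a fixed dose of an anchor drug with five library-drug doses (not always all listed) in √10 steps. After 5 days, nuclei were stained in a one-step fixation (final 0.05% Triton X-100, 1% formaldehyde, 1 ug/ml Hoechst) and counted on 4× images, and relative viability is the treated-to-vehicle nuclei ratio, as the median of duplicate plates.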

Imatinib + Navitoclax = compound: Cc1ccc(NC(=O)c2ccc(CN3CCN(C)CC3)cc2)cc1Nc1nccc(-c2cccnc2)n1 [Imatinib] + CC1(C)CCC(c2ccc(Cl)cc2)=C(CN2CCN(c3ccc(C(=O)NS(=O)(=O)c4ccc(N[C@H](CCN5CCOCC5)CSc5ccccc5)c(S(=O)(=O)C(F)(F)F)c4)cc3)CC2)C1 [Navitoclax] (partner 0.5 µM)
Procedure, shortened: as §1

Imatinib + Tozasertib = compound: Cc1ccc(NC(=O)c2ccc(CN3CCN(C)CC3)cc2)cc1Nc1nccc(-c2cccnc2)n1 [Imatinib] + Cc1cc(Nc2cc(N3CCN(C)CC3)nc(Sc3ccc(NC(=O)C4CC4)cc3)n2)n[nH]1 [Tozasertib] (partner 0.1 µM)
Procedure, shortened: as §1

Imatinib + AZD7762 = compound: Cc1ccc(NC(=O)c2ccc(CN3CCN(C)CC3)cc2)cc1Nc1nccc(-c2cccnc2)n1 [Imatinib] + NC(=O)Nc1cc(-c2cccc(F)c2)sc1C(=O)N[C@H]1CCCNC1 [AZD7762] (partner 0.2 µM)
Procedure, shortened: as §1

Row | Cell Line | relative viability (Imatinib + Palbociclib; first compound 0.02 µM) | relative viability (Imatinib + Palbociclib; first compound 0.2 µM) | relative viability (Imatinib + Palbociclib; first compound 0.6325 µM) | relative viability (Imatinib + Palbociclib; first compound 2 µM) | relative viability (Imatinib + Navitoclax; first compound 0.02 µM) | relative viability (Imatinib + Navitoclax; first compound 0.2 µM) | relative viability (Imatinib + Navitoclax; first compound 0.6325 µM) | relative viability (Imatinib + Navitoclax; first compound 2 µM) | relative viability (Imatinib + Tozasertib; first compound 0.02 µM) | relative viability (Imatinib + Tozasertib; first compound 0.2 µM) | relative viability (Imatinib + Tozasertib; first compound 0.6325 µM) | relative viability (Imatinib + Tozasertib; first compound 2 µM) | relative viability (Imatinib + AZD7762; first compound 0.02 µM) | relative viability (Imatinib + AZD7762; first compound 0.2 µM) | relative viability (Imatinib + AZD7762; first compound 0.6325 µM) | relative viability (Imatinib + AZD7762; first compound 2 µM) | relative viability (Imatinib + Palbociclib; first compound 0.06325 µM) | relative viability (Imatinib + Navitoclax; first compound 0.06325 µM) | relative viability (Imatinib + Tozasertib; first compound 0.06325 µM) | relative viability (Imatinib + AZD7762; first compound 0.06325 µM)
1 | NCI-H1793 | 0.293 | 0.315 | 0.291 | 0.307 | 0.378 | 0.409 | 0.362 | 0.513 | 0.309 | 0.328 | 0.223 | 0.28 | 0.463 | 0.279 | 0.286 | 0.197 |  |  |  | 
2 | RERF-LC-KJ | 1.11 | 1.07 | 0.981 | 1.09 | 1.09 | 1 | 0.83 | 0.954 | 0.527 | 0.476 | 0.389 | 0.305 | 1.01 | 1.19 | 0.88 | 0.967 | 1.23 | 0.999 | 0.498 | 0.523
3 | HCC-78 | 0.468 | 0.528 | 0.452 | 0.499 | 0.725 | 0.823 | 0.7 | 0.818 | 0.393 | 0.427 | 0.409 | 0.427 | 0.592 |  | 0.636 | 0.58 | 0.527 | 0.62 | 0.455 | 0.714
4 | LCLC-103H | 0.465 | 0.457 | 0.434 | 0.418 |  |  |  |  | 0.463 | 0.514 | 0.481 | 0.398 | 0.809 | 0.876 | 0.695 | 0.781 | 0.499 |  | 0.473 | 0.779
5 | NCI-H1792 | 0.608 | 0.655 | 0.573 | 0.736 | 0.744 | 0.761 | 0.644 | 0.567 |  |  |  |  | 0.727 | 0.513 |  | 0.34 | 0.542 | 0.557 |  | 0.7
6 | NCI-H358 | 0.159 | 0.153 | 0.142 | 0.146 |  |  |  |  | 0.103 | 0.102 | 0.0961 | 0.0939 | 0.559 | 0.489 | 0.574 | 0.521 | 0.138 |  | 0.121 | 
7 | NCI-H1355 | 0.433 | 0.426 | 0.398 | 0.39 | 1.06 | 0.99 | 0.922 | 0.947 | 0.589 | 0.51 | 0.395 | 0.349 | 0.988 | 0.83 | 0.63 | 0.571 |  |  |  | 
8 | PC-14 | 0.655 | 0.558 | 0.524 | 0.542 | 1.14 | 1.12 | 1.06 | 0.96 | 0.665 | 0.592 | 0.591 | 0.516 | 0.465 | 0.338 | 0.453 | 0.334 | 0.633 | 0.988 |  | 0.477
